Experimental data reported in publication PMC8848768, “Synthesis and evaluation of potent yaku'amide A analogs” (Chemical Science, 2022).
Numbered stars: 1 amine (or outer) side, 2 acyl side, 3 side chain; on linkers, the order of the positions; unused ones are H or OH. Square brackets hold non-standard residues; d marks the D form. Peptide text beside a SMILES is read from it. * marks the point of attachment. Heptanoyl(3-oxo-2,2,4S,6-Me) = CC(C)C[C@H](C)C(=O)C(C)(C)C(=O)*; NH((S)-1-NMe2-3-Me-but-2-yl) = CC(C)[C@@H](CN(C)C)N*; Ile(3R-OH) = CC[C@@](C)(O)[C@H](N)C(=O)O; dVal(3-OH) = CC(C)(O)[C@@H](N)C(=O)O; d(aIle) = CC[C@H](C)[C@@H](N)C(=O)O; Val(3-OH) = CC(C)(O)[C@H](N)C(=O)O; X1 = CCC(CC)=C(N[*:1])C(=O)[*:2]; NHCH2CH2NMe2 = CN(C)CCN*; ΔVal = CC(C)=C(N)C(=O)O

What was measured:
[1] = tested on: MCF7; details: MCF7 (Breast Carcinoma), MTS, 72 hours, 37 °C, 5% CO2, 384-well, n>2 independent studies (in duplicate); for IC50: read-out: Aver IC50, MCF7
Description: (§1) The antiproliferative activity profiles of 1a, its full-length analogs 2a and 2b, and its partial structures (23, 24, 26, and 30) were determined by in vitro screening in 72 hours MTS cell proliferation assays against a panel of 18 different human cancer cell lines. […] The three peptides were also evaluated for their antiproliferative activity against the lung fibroblast MRC5 cell line.
(§2) Cells (40 µ L) are added into individual wells of a 384-well black/clear bottom plate on day zero at concentrations enabling continuous log growth over the course of the assay. On day one, compounds (or DMSO) are transferred using an ATS-liquid handler (100 nL per well) to individual wells containing cells and the cells are treated for 72 hours (37 °C, 5% CO 2) prior to measuring proliferation using MTS reagent following manufacturer’s instructions. Net OD values are determined by subtracting the average OD values of cells (measured on day 1, T = 0) from average total OD value of cells (measured on day 4, T = 72h). IC 50 values are calculated using proprietary software (IC 50 values normalized against all compounds). Results represent n>2 independent studies (in duplicate).
(§3) Table S1. Antiproliferative Data of Compounds 1a, 2a, 2b, 23, 24, 26, and 30.
(§4) Table S2. Human Cell Line Descriptions.
(§5) Human Cell Line* Description
(§6) *All cells were obtained from ATCC and are authenticated

[2] = tested on: BXPC3; assay: cells; details: read-out: Aver IC50, BXPC3; BXPC3 (Pancreatic - Adenocarcinoma); MTS, 72 hours, 37 °C, 5% CO2, 384-well; n>2 independent studies (in duplicate)
Description: as §1, §2, §3, §4, §5, §6

[3] = tested on: U937; assay: cells; details: read-out: Aver IC50, U937; U937 (Pro-monocytic, Human Myeloid Leukemia); MTS, 72 hours, 37 °C, 5% CO2, 384-well; n>2 independent studies (in duplicate)
Description: as §1, §2, §3, §4, §5, §6

[4] = tested on: MV411; assay: cells; details: read-out: Aver IC50, MV411; MV411 (Acute Myeloid Leukemia); MTS, 72 hours, 37 °C, 5% CO2, 384-well; n>2 independent studies (in duplicate)
Description: as §1, §2, §3, §4, §5, §6

[5] = tested on: CALU6; assay: cells; details: read-out: Aver IC50, CALU6; CALU6 (Lung - Adenocarcinoma); MTS, 72 hours, 37 °C, 5% CO2, 384-well; n>2 independent studies (in duplicate)
Description: as §1, §2, §3, §4, §5, §6

[6] = tested on: COLO678; assay: cells; details: read-out: Aver IC50, COLO678; COLO678 (Colon Carcinoma); MTS, 72 hours, 37 °C, 5% CO2, 384-well; n>2 independent studies (in duplicate)
Description: as §1, §2, §3, §4, §5, §6

[7] = tested on: OVCAR3; assay: cells; details: read-out: Aver IC50, OVCAR3; OVCAR3 (Ovary - Adenocarcinoma); MTS, 72 hours, 37 °C, 5% CO2, 384-well; n>2 independent studies (in duplicate)
Description: as §1, §2, §3, §4, §5, §6

[8] = tested on: THP1; assay: cells; details: read-out: Aver IC50, THP1; THP1 (Acute Monocytic Leukemia); MTS, 72 hours, 37 °C, 5% CO2, 384-well; n>2 independent studies (in duplicate)
Description: as §1, §2, §3, §4, §5, §6

[9] = tested on: JURKAT; assay: cells; details: read-out: Aver IC50, JURKAT; JURKAT (acute T-cell leukemia); MTS, 72 hours, 37 °C, 5% CO2, 384-well; n>2 independent studies (in duplicate)
Description: as §1, §2, §3, §4, §5, §6

[10] = tested on: HL60; assay: cells; details: read-out: Aver IC50, HL60; HL60 (Leukema - Promyelocytic); MTS, 72 hours, 37 °C, 5% CO2, 384-well; n>2 independent studies (in duplicate)
Description: as §1, §2, §3, §4, §5, §6

[11] = tested on: NCIH1048; assay: cells; details: read-out: Aver IC50, NCIH1048; NCIH1048 (Lung - SCLC); MTS, 72 hours, 37 °C, 5% CO2, 384-well; n>2 independent studies (in duplicate)
Description: as §1, §2, §3, §4, §5, §6

[12] = tested on: RAMOS; assay: cells; details: read-out: Aver IC50, RAMOS; RAMOS (Burkitt's lymphoma); MTS, 72 hours, 37 °C, 5% CO2, 384-well; n>2 independent studies (in duplicate)
Description: as §1, §2, §3, §4, §5, §6

[13] = tested on: HCT116; assay: cells; details: read-out: Aver IC50, HCT116; HCT116 (Colon Carcinoma); MTS, 72 hours, 37 °C, 5% CO2, 384-well; n>2 independent studies (in duplicate)
Description: as §1, §2, §3, §4, §5, §6

[14] = tested on: SNUC1; assay: cells; details: read-out: Aver IC50, SNUC1; SNUC1 (Colon Carcinoma); MTS, 72 hours, 37 °C, 5% CO2, 384-well; n>2 independent studies (in duplicate)
Description: as §1, §2, §3, §4, §5, §6

[15] = tested on: HT29; assay: cells; details: read-out: Aver IC50, HT29; HT29 (Colon Carcinoma); MTS, 72 hours, 37 °C, 5% CO2, 384-well; n>2 independent studies (in duplicate)
Description: as §1, §2, §3, §4, §5, §6

[16] = tested on: PANC1005; assay: cells; details: read-out: Aver IC50, PANC1005; PANC1005 (Pancreatic - Adenocarcinoma); MTS, 72 hours, 37 °C, 5% CO2, 384-well; n>2 independent studies (in duplicate)
Description: as §1, §2, §3, §4, §5, §6

[17] = tested on: A549; assay: cells; details: read-out: Aver IC50, A549; A549 (Lung - NSCLC); MTS, 72 hours, 37 °C, 5% CO2, 384-well; n>2 independent studies (in duplicate)
Description: as §1, §2, §3, §4, §5, §6

[18] = tested on: lung fibroblast MRC5 cell line; assay: cells; details: read-out: Aver IC50, MRC5; MRC5 (Lung Fibroblast, noncancerous); MTS, 72 hours, 37 °C, 5% CO2, 384-well; n>2 independent studies (in duplicate)
Description: as §1, §2, §3, §4, §5, §6

[19] = tested on: A375; assay: cells; details: read-out: Aver IC50, A375; A375 (Malignant Melanoma); MTS, 72 hours, 37 °C, 5% CO2, 384-well; n>2 independent studies (in duplicate)
Description: as §1, §2, §3, §4, §5, §6

[20] = tested on: panel of 18 different human cancer cell lines; assay: 72 h MTS cell proliferation assays, panel of cancer cell lines; type: cell-based; details: against most of the cell lines, ca.
Description: as §1, §2, §3, §4, §5, §6

[21] = tested on: P388 murine leukemia cells; details: cited from earlier work
Description: The linear peptide yaku'amide A (1a, Fig. 1) was isolated by Matsunaga and co-workers from the deep-sea sponge Ceratopsion sp.[1] It contains several unusual β-tert-hydroxy amino acids (β-OHAAs) and tetrasubstituted dehydroamino acids (ΔAAs).

Compound	IC50 [1] [µM]	IC50 [2] [µM]	IC50 [3] [µM]	IC50 [4] [µM]	IC50 [5] [µM]	IC50 [6] [µM]	IC50 [7] [µM]	IC50 [8] [µM]	IC50 [9] [µM]	IC50 [10] [µM]	IC50 [11] [µM]	IC50 [12] [µM]	IC50 [13] [µM]	IC50 [14] [µM]	IC50 [15] [µM]	IC50 [16] [µM]	IC50 [17] [µM]	IC50 [18] [µM]	IC50 [19] [µM]	also measured
CCC(CC)=C(NC(=O)[C@@H](NC(=O)C(C)(C)C(=O)[C@@H](C)CC(C)C)[C@](C)(O)CC)C(=O)NCC(=O)NC(C(=O)N[C@@H](C(=O)N[C@@H](C(=O)N[C@@H](C(=O)N[C@H](C(=O)NC(C(=O)N[C@H](C)C(=O)N[C@@H](C(=O)N[C@H](C(=O)NC(C(=O)N[C@H](CN(C)C)C(C)C)=C(C)C)C(C)C)C(C)C)=C(C)C)C(C)(C)O)C(C)(C)O)[C@@H](C)CC)C(C)C)=C(C)C [Compound 2a] ({Heptanoyl(3-oxo-2,2,4S,6-Me)}-[Ile(3R-OH)][X1]G[ΔVal][dV][d(aIle)][dVal(3-OH)][Val(3-OH)][ΔVal][dA][dV]V[ΔVal]-{NH((S)-1-NMe2-3-Me-but-2-yl)})	13	3.9	0.435	0.0208	0.578	2.01	0.0814	9.19	4.21	0.37	1.31	0.362	1.13	0.0344	2.27	1.97	0.0865	5.47	1.51	Increased potency compared to 2b [20]: 2–4 fold
CCC(CC)=C(NC(=O)CNC(=O)C(NC(=O)[C@@H](NC(=O)C(C)(C)C(=O)[C@@H](C)CC(C)C)[C@](C)(O)CC)=C(C)C)C(=O)N[C@@H](C(=O)N[C@@H](C(=O)N[C@@H](C(=O)N[C@H](C(=O)NC(C(=O)N[C@H](C)C(=O)NCCN(C)C)=C(C)C)C(C)(C)O)C(C)(C)O)[C@@H](C)CC)C(C)C [Compound 30] ({Heptanoyl(3-oxo-2,2,4S,6-Me)}-[Ile(3R-OH)][ΔVal]G[X1][dV][d(aIle)][dVal(3-OH)][Val(3-OH)][ΔVal][dA]-NHCH2CH2NMe2)	12.6	> 25	> 25	2.7	> 25	> 25	12.6	> 25	22.8	20	> 25	24.3	> 25	20.6	> 25	> 25	20.6	> 25	24.7	
yaku'amide A [Compound 1a, reference compound]	0.125	3.82	1.21	0.119	2.22	2.69	0.227	9.29	4.95	0.578	3.11	0.975	1.74	0.129	2.89	2.83	0.108	14.5	2.14	IC50, growth inhibition of P388 murine leukemia cells [21]: 0.014 µg/mL; Aver IC50, MCF7 [1]: potent
